Experimental data reported in the supplement of paper PMC10307832.

What was measured:
Assay in all cases: relative viability (nuclei count vs DMSO), 5 days (fraction); higher = more cells survive
MK-8033 + Trametinib = compound: Cn1cc(-c2cnc3ccc4ccc(CS(=O)(=O)NCc5ccccn5)cc4c(=O)c3c2)cn1 [MK-8033] + CC(=O)Nc1cccc(-n2c(=O)n(C3CC3)c(=O)c3c(Nc4ccc(I)cc4F)n(C)c(=O)c(C)c32)c1 [Trametinib] (partner 0.02 µM)
Outline: (§1)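 Lung cancer cell lines were seeded in 1536-well plates and dosed by pin tool the next day, with either a single drug or a fixed anchor-drug dose combined with five library-drug doses (not always all listed) spaced in √10 steps. Five days later, one step fixed the cells and stained their nuclei (final 0.05% Triton X-100, 1% formaldehyde, 1 ug/ml Hoechst), and nuclei were counted on 4× images. Relative viability is the nuclei count in treated wells divided by the count in vehicle wells, and each value is the median of duplicate plates.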

RU-SKI 43 + Olaparib = compound: CC[C@@H](C)CNCC(=O)N1CCC2=C([C@@H]1COC3=CC=CC(=C3)C)C=CS2 [RU-SKI 43] + O=C(c1cc(Cc2n[nH]c(=O)c3ccccc23)ccc1F)N1CCN(C(=O)C2CC2)CC1 [Olaparib] (partner 8 µM)
Outline: as §1

Irinotecan + Pictilisib = compound: CCc1c2c(nc3ccc(OC(=O)N4CCC(N5CCCCC5)CC4)cc13)-c1cc3c(c(=O)n1C2)COC(=O)[C@]3(O)CC [Irinotecan] + CS(=O)(=O)N1CCN(Cc2cc3nc(-c4cccc5[nH]ncc45)nc(N4CCOCC4)c3s2)CC1 [Pictilisib] (partner 1 µM)
Outline: as §1

Irinotecan + Pemetrexed = compound: CCc1c2c(nc3ccc(OC(=O)N4CCC(N5CCCCC5)CC4)cc13)-c1cc3c(c(=O)n1C2)COC(=O)[C@]3(O)CC [Irinotecan] + Nc1nc2[nH]cc(CCc3ccc(C(=O)N[C@@H](CCC(=O)O)C(=O)O)cc3)c2c(=O)[nH]1 [Pemetrexed] (partner 0.2 µM)
Outline: as §1

Row | Cell Line | relative viability (MK-8033 + Trametinib; first compound 0.02 µM) | relative viability (MK-8033 + Trametinib; first compound 0.06325 µM) | relative viability (MK-8033 + Trametinib; first compound 0.2 µM) | relative viability (MK-8033 + Trametinib; first compound 0.6325 µM) | relative viability (MK-8033 + Trametinib; first compound 2 µM) | relative viability (RU-SKI 43 + Olaparib; first compound 0.1 µM) | relative viability (RU-SKI 43 + Olaparib; first compound 0.3162 µM) | relative viability (RU-SKI 43 + Olaparib; first compound 1 µM) | relative viability (RU-SKI 43 + Olaparib; first compound 3.162 µM) | relative viability (RU-SKI 43 + Olaparib; first compound 10 µM) | relative viability (Irinotecan + Pictilisib; first compound 0.6325 µM) | relative viability (Irinotecan + Pictilisib; first compound 2 µM) | relative viability (Irinotecan + Pictilisib; first compound 6.325 µM) | relative viability (Irinotecan + Pictilisib; first compound 20 µM) | relative viability (Irinotecan + Pemetrexed; first compound 0.6325 µM) | relative viability (Irinotecan + Pemetrexed; first compound 2 µM) | relative viability (Irinotecan + Pemetrexed; first compound 6.325 µM) | relative viability (Irinotecan + Pemetrexed; first compound 20 µM)
1 | NCI-H358 | 0.141 | 0.124 | 0.11 | 0.146 | 0.131 | 0.548 | 0.936 | 0.756 | 0.636 | 0.545 | 0.265 | 0.387 | 0.282 | 0.171 | 0.167 | 0.19 | 0.146 | 0.167
2 | NCI-H520 | 0.615 | 0.565 | 0.56 | 0.795 | 0.629 | 0.35 | 0.292 | 0.372 | 0.344 | 0.335 | 0.225 | 0.324 | 0.201 | 0.152 | 0.509 | 0.277 | 0.273 | 0.167
3 | BEN | 1.07 | 0.943 | 0.964 | 1.03 | 0.991 | 1.16 | 1.2 | 1.09 | 1.09 | 1.07 | 0.508 | 0.461 | 0.253 | 0.349 | 0.535 | 0.828 | 0.415 | 0.485
4 | A-427 | 0.775 | 0.719 | 0.696 | 0.752 | 0.781 | 0.707 | 0.759 | 0.68 | 0.752 | 0.626 | – | 0.392 | 0.19 | 0.225 | 0.884 | 1 | 0.396 | 0.229
5 | EMC-BAC-2 | 0.804 | 0.776 | 0.826 | 0.928 | 0.902 | 0.476 | 0.495 | 0.54 | 0.487 | 0.486 | 0.37 | 0.373 | 0.234 | 0.223 | 0.389 | 0.393 | 0.312 | 0.244
6 | NCI-H1975 | 0.357 | 0.301 | 0.279 | 0.239 | 0.405 | 0.752 | 1 | 0.892 | 0.729 | 0.767 | 0.339 | 0.316 | 0.204 | 0.154 | 0.268 | 0.311 | 0.252 | 0.173
7 | NCI-H1755 | 0.804 | 0.767 | 0.74 | 0.702 | 0.732 | 0.835 | 0.975 | 0.99 | 0.923 | 0.908 | 0.249 | 0.382 | 0.224 | 0.361 | 0.383 | 0.45 | 0.39 | 0.448
8 | NCI-H2023 | 0.552 | 0.511 | 0.453 | 0.475 | 0.366 | 0.457 | 0.478 | 0.44 | 0.416 | 0.526 | 0.148 | 0.204 | 0.113 | 0.0527 | 0.256 | 0.2 | 0.156 | 0.0599
9 | EKVX | 0.334 | 0.297 | 0.295 | 0.367 | 0.344 | 0.716 | 0.971 | 0.866 | 1.04 | 0.849 | 0.503 | 0.421 | 0.224 | 0.163 | – | 0.339 | 0.246 | 0.205
10 | EPLC-272H | 0.247 | 0.263 | 0.29 | 0.275 | 0.301 | 0.597 | 0.648 | 0.813 | 0.697 | 0.64 | 0.212 | 0.305 | 0.188 | 0.195 | 0.351 | 0.321 | 0.292 | 0.268
11 | LCLC-97TM1 | 0.181 | 0.19 | – | 0.207 | 0.209 | 0.408 | 0.347 | 0.535 | 0.446 | 0.416 | 0.12 | 0.219 | 0.167 | 0.279 | 0.124 | 0.196 | 0.129 | 0.133
12 | NCI-H2085 | 0.542 | 0.546 | 0.525 | 0.554 | 0.574 | 0.765 | 0.681 | 0.717 | 0.741 | 0.785 | 0.453 | 0.403 | 0.313 | 0.307 | 0.661 | 0.915 | 0.826 | 0.468
13 | COR-L23 | 0.607 | 0.576 | 0.602 | 0.572 | 0.523 | 0.333 | 0.403 | 0.377 | 0.325 | 0.359 | 0.338 | 0.363 | 0.228 | 0.0867 | 0.181 | 0.178 | 0.204 | 0.165
14 | HCC-15 | 0.387 | 0.369 | 0.322 | 0.351 | 0.368 | 0.71 | 0.874 | 0.755 | 0.772 | 0.627 | 0.186 | 0.286 | 0.137 | 0.167 | 0.18 | 0.188 | 0.207 | 0.189
15 | RERF-LC-KJ | 0.818 | 0.843 | 0.812 | 0.828 | 0.812 | 0.818 | 1.04 | 0.914 | 0.876 | 0.811 | 0.516 | 0.422 | 0.455 | 0.418 | 0.321 | 0.435 | 0.44 | 0.211
16 | PC-3 [JPC-3] | 0.599 | – | 0.68 | 0.708 | 0.666 | 1.09 | 1.3 | 1.2 | 1.2 | 1.06 | 0.309 | 0.535 | 0.315 | 0.344 | 0.512 | 1.25 | 0.522 | 0.463
17 | NCI-H1355 | 0.415 | 0.363 | 0.393 | 0.447 | 0.419 | 0.742 | 0.72 | 0.724 | 0.797 | 0.775 | 0.201 | 0.407 | 0.202 | 0.238 | – | 0.968 | 0.656 | 0.319
